Reference: patent publication US20230052424A1, “Peramivir Dry Powder Inhaler and Method of Preparing the Same” (GUANGZHOU NUCIEN PHARMACEUTICAL CO., LTD, priority 2020, published 2023)
Marks after values point to notes of the source that are not given here.

Key:
[1] = system: Influenza A/PR/8/34 virus; assay: In vivo protection of mice infected with influenza virus (mortality, survival time); parameters: species or system Balb/c mice; details: 10 mg/kg intragastric, once per day 5 days from 2 h post-infection, 10 mice, 15 days observed
Method: 80 SPF Balb/c mice, half male and half female, weighing 16.9˜22.6 g each, were stochastically divided into 8 groups: a normal control group, a virus model group, an oseltamivir phosphate capsule group (Tamiflu) (10 mg/kg), a peramivir intravenous injection group (10 mg/kg), and peramivir dry powder inhaler (example 3) groups I-IV (0.1, 0.3, 0.9, 2.7 mg/kg), ten mice in each group. […] Prior to daily administration, the peramivir intravenous injection was prepared into a 1.0 mg/mL liquor with 0.9% sodium chloride injection, and the oseltamivir phosphate capsule was prepared into a 0.5 mg/mL liquor with pure water. The mice in each group were all administered at 2 h post-modeling of the intranasal virus infection, wherein the mice in each peramivir dry powder inhaler group were administered with a corresponding dosage of peramivir dry powder inhaler, the mice in the peramivir intravenous injection group were intravenously injected with the peramivir liquid as per a dosage of 10 mL/kg, the oseltamivir phosphate capsule group were intragastrically administered with oseltamivir phosphate liquid as per a dosage of 20 mL/kg, and the normal control group and the model control group were sprayed with air of the same volume via their trachea. The mice were administered once per day, 5 days in succession. The first day (D1) of virus infection was counted from the next day of the intranasal virus inflection modeling.

[2] = system: Influenza A/PR/8/34 virus; assay: Viral titer of mouse lung tissue (hemagglutination titer); type: in vivo, Balb/c mice; details: 10 mg/kg intragastric once per day, lung suspension, logarithmic value of maximum dilution factor
Method: 84 SPF Balb/c mice, half male and half female, weighing 21.2˜26.6 g each, were stochastically divided into 7 groups: a normal control group, a virus model group, an oseltamivir phosphate capsule group (Tamiflu) (10 mg/kg), a peramivir I.V. group (10 mg/kg), and peramivir dry powder inhaler (example 3) groups I-III (0.1, 0.3, 0.9 mg/kg), twelve mice in each group (in each group, F04˜F06 and M04˜M06 were subjected to 24 h hemagglutination titer measurement, and F01˜F03 and M1˜M03 were subjected to 48 h hemagglutination titer measurement). […] Prior to daily administration, the peramivir I.V. injection was prepared into a 1.0 mg/mL liquor with 0.9% sodium chloride injection, and the oseltamivir phosphate capsule was prepared into a 0.5 mg/mL liquor with pure water. The mice in each group were all administered at 2 h post-modeling of the intranasal virus infection, wherein the mice in each peramivir DPI group were administered with a corresponding dosage of peramivir dry powder inhaler, the mice in the peramivir intravenous injection group were intravenously injected with the peramivir liquid as per a dosage of 10 mL/kg, the oseltamivir phosphate capsule group were intragastrically administered with oseltamivir phosphate liquid as per a dosage of 20 mL/kg, and the normal control group and the model control group were sprayed with air of the same volume via their trachea. The mice were administered once per day, 2 days in succession.
6 mice, half male and half female, were stochastically selected from each group at 24 h and 48 h post-administration, respectively. The mice were euthanized by cervical dislocation and their lungs were procured through dissection and then put in a homogenizer. 0.9% sodium chloride injection was added according to a ratio of the lung weight (g) to 0.9% sodium chloride injection (mL)=1:9, followed by grinding the homogenates into mouse lung suspensions. The mouse lung suspensions were subjected to centrifugation at 2500 rpm for 20 min under a 4° C. environment, with the supernatant being acquired for future use. Except the first column, 50 μL PBS (Phosphate Buffer Saline) was added into hemagglutination plate wells. 100 μL to-be-tested supernatant was added into each well in the first column, respectively, followed by adding with serial dilution till the wells in the 11th column, and then 50 μL 0.5% chicken erythrocyte was added into each well, respectively, followed by setting for 40 min; the hemagglutination plate was then tilted to observe whether the erythrocyte flew in a teardrop shape. […]

[3] = listed as oseltamivir phosphate

CCOC(=O)C1=C[C@@H](OC(CC)CC)[C@H](NC(C)=O)[C@@H](N)C1 [Oseltamivir phosphate]
Average number of survival days [1]: 11.3 ± 4.8 days
Mortality rate (%) [1]: 40** %
Number of deaths [1]: 4
Number of survivals [1]: 6
Average number of survival days [1, 3]: significantly prolonged
Mortality rate (%) [1, 3]: significantly decreased
hemagglutination titer ([2]; 24 h, n = 6): 2.5 ± 0.5
hemagglutination titer ([2]; 24 h, n = 6, listed as oseltamivir phosphate): notably decreased
hemagglutination titer ([2]; 48 h, n = 6): 2.2 ± 0.8
hemagglutination titer ([2]; 48 h, n = 6, listed as oseltamivir phosphate): notably decreased
